Experimental data: the NIST ThermoML archive (doi:10.1016/j.jct.2013.08.011)
Numbers after ± are expanded uncertainties.

Key:
[1] = refractive index (Na D-line) (dimensionless); details: 293.15 K; 101.33 kPa; Liquid; Standard Abbe refractometry
[2] = Liquid; for Normal boiling temperature: Ebulliometric method (Recirculating still); for mass density: 293.15 K, 101.33 kPa, Vibrating tube method

SMILES	refractive index [1]	Normal boiling temperature [2] [°C]	mass density [2] [kg/m3]
OCCO [1,2-ethanediol]	1.4324 ± 0.0007	197.48 ± 0.2	
CC#N [acetonitrile]	1.3445 ± 0.0007	81.50 ± 0.2	783.4 ± 2
CCCO [propan-1-ol]	1.3865 ± 0.0007	97.30 ± 0.2	804.1 ± 2
